Consider 72 compounds from US8501757B2, “Substituted phenylamine carboxamide analogs as mGluR5 negative allosteric modulators and methods of making and using the same” (priority 2009, dated 2013).

Read-outs that look alike come from different tables or passages of the source.

The target in assay [1] is T1, rat mGluR5 (Rattus norvegicus, UniProt P31424). As to the kind of experiment: cell-based.
Description: (§1) Human embryonic kidney (HEK) cells transfected with rat mGluR5 were plated in clear bottom assay plates for assay in a Functional Drug Screening System (FDSS). The cells were loaded with a Ca2+-sensitive fluorescent dye (e.g., Fluo-4), and the plates were washed and placed in the FDSS instrument. Test compound was applied to cells 3 seconds after baseline readings were taken. Cells were incubated with the test compounds for 140 seconds and then stimulated with an EC20 concentration of an mGluR5 agonist (e.g., glutamate, 3,5-dihydroxyphenylglycine, or quisqualate); 60 seconds later an EC80 concentration of agonist was added and readings taken for an additional 40 seconds. Data were collected at 1 Hz. […] Concentration response curves were generated using a four parameter logistical equation.
(§2) The above described assay was operated in two modes. In the first mode (utilizing a triple add protocol), a range of concentrations of the present compounds were added to cells, followed by two single fixed concentrations of agonist (EC20 followed by EC80). If a compound acted as a potentiator, an EC50 value for potentiation and a maximum extent of potentiation by the compound at this concentration of agonist was determined by non-linear curve fitting. If a compound acted as an antagonist, an IC50 value for antagonism and a maximum extent of antagonism by the compound at this concentration of agonist was determined by non-linear curve fitting. In the second mode (utilizing a double add protocol), several fixed concentrations of the present compounds were added to various wells on a plate, followed by a range of concentrations of agonist for each concentration of present compound; the EC50 values for the agonist at each concentration of compound were determined by non-linear curve fitting. A decrease in the EC50 value of the agonist with increasing concentrations of the present compounds (a leftward shift of the agonist concentration-response curve) is an indication of the degree of mGluR5 positive allosteric modulation at a given concentration of the present compound. An increase in the EC50 value of the agonist with increasing concentrations of the present compounds (a rightward shift of the agonist concentration-response curve) is an indication of the degree of mGluR5 antagonism at a given concentration of the present compound. The second mode also indicates whether the present compounds also affect the maximum response to mGluR5 to agonists.
(§3) The mGluR5 activity was determined using the metabotropic glutamate receptor activity assays in human embryonic kidney cells as described herein, wherein the human embryonic kidney cells were transfected with rat mGluR5. The mGluR5 activity data for some compounds are shown as the average of at least three experiments with the standard error in these cases. If no error is indicated for the mGluR5 activity, the values given represent the results from a single experiment or the average of two experiments.
(§4) The cells were loaded with a Ca2+-sensitive fluorescent dye (e.g., Fluo-4), and the plates were washed and placed in the FDSS instrument. Test compound was applied to cells 3 seconds after baseline readings were taken. Cells were incubated with the test compounds for 140 seconds and then stimulated with an EC20 concentration of an mGluR5 agonist (e.g., glutamate, 3,5-dihydroxyphenylglycine, or quisqualate); 60-80 seconds later an EC80 concentration of agonist was added and readings taken for an additional 40 seconds. Data were collected at 1 Hz.
Assay [2] addresses T1, rat mGluR5. Particulars: read-out: mGluR5, IC50 rat; HEK cells expressing rat mGluR5.
Description: as §1, §2, §3, §4
A further assay concerns the target human mGluR5 (Homo sapiens, UniProt P41594). In words: cell-based.

T1 sequence (P31424 21-1203): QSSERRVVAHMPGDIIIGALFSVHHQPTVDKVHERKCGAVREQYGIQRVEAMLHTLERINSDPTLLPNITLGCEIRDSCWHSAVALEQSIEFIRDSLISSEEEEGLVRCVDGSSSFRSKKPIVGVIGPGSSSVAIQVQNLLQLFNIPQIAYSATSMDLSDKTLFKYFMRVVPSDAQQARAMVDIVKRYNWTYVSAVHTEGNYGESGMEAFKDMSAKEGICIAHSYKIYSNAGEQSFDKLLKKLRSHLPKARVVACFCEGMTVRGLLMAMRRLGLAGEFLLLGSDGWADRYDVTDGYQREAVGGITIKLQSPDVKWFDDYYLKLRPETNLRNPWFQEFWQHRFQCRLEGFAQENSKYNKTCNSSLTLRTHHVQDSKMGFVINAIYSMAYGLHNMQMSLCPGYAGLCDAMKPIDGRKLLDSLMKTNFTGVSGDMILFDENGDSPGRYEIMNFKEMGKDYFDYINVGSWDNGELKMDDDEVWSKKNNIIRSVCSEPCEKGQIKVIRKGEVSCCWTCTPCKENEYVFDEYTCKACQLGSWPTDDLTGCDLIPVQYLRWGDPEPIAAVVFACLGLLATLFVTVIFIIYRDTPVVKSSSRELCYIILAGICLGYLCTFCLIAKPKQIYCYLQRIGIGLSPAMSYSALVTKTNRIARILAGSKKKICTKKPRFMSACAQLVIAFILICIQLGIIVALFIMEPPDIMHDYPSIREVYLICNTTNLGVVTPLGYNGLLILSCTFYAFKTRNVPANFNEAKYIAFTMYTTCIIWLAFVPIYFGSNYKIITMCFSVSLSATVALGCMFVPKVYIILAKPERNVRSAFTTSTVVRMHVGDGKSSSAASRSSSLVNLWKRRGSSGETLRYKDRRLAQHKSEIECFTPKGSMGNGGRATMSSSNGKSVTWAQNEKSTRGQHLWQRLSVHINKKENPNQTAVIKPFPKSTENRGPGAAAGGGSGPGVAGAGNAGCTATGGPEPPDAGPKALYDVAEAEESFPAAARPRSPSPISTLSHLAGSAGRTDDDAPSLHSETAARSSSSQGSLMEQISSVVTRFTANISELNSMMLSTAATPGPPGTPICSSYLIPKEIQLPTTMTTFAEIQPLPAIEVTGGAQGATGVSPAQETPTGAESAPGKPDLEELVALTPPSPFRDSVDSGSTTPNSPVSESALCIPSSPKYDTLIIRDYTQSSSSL
Sequence of human mGluR5 (P41594 21-1212): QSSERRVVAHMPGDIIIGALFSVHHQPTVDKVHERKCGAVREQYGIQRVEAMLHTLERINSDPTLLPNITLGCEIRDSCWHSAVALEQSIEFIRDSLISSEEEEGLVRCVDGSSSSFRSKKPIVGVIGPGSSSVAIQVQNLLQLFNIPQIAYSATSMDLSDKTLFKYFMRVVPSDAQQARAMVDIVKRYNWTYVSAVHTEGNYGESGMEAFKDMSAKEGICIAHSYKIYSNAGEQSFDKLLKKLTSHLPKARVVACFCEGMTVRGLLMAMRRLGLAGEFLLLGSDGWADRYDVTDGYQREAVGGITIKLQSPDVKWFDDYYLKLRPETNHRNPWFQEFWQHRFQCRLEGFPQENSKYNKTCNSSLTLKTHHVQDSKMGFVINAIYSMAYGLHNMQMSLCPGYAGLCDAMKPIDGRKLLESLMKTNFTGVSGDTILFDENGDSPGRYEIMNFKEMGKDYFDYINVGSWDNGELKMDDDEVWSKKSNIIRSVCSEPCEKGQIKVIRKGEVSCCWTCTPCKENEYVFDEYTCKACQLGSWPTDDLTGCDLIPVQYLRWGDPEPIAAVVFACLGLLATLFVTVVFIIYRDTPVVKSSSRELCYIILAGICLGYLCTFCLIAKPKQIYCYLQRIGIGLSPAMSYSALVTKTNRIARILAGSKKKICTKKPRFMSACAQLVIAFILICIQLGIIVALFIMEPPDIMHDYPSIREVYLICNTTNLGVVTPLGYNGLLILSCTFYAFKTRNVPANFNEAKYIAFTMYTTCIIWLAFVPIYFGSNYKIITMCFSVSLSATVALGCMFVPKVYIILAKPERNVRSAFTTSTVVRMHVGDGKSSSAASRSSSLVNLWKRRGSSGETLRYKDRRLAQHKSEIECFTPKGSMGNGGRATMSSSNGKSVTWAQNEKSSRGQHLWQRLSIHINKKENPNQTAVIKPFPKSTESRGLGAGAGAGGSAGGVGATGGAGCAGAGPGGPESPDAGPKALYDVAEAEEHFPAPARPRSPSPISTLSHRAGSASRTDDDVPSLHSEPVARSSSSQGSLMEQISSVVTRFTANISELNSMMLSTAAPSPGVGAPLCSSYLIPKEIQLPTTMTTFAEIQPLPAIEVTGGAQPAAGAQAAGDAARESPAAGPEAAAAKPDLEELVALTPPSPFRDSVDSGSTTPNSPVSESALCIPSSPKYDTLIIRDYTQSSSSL
Description for human mGluR5: The mGluR5 activity was determined using the metabotropic glutamate receptor activity assays in human embryonic kidney cells as described herein. The mGluR5 activity data for some compounds are shown as the average of at least three experiments with the standard error in these cases. If no error is indicated for the mGluR5 activity, the values given represent the results from a single experiment or the average of two experiments.
The cells were loaded with a Ca2+-sensitive fluorescent dye (e.g., Fluo-4), and the plates were washed and placed in the FDSS instrument. Test compound was applied to cells 3 seconds after baseline readings were taken. Cells were incubated with the test compounds for 140 seconds and then stimulated with an EC20 concentration of an mGluR5 agonist (e.g., glutamate, 3,5-dihydroxyphenylglycine, or quisqualate); 60-80 seconds later an EC80 concentration of agonist was added and readings taken for an additional 40 seconds. Data were collected at 1 Hz. […] Concentration response curves were generated using a four parameter logistical equation.
The above described assay was operated in two modes. In the first mode (utilizing a triple add protocol), a range of concentrations of the present compounds were added to cells, followed by two single fixed concentrations of agonist (EC20 followed by EC80). If a compound acted as a potentiator, an EC50 value for potentiation of the EC20 response and a maximum extent of potentiation by the compound at this concentration of agonist was determined by non-linear curve fitting. If a compound acted as an antagonist, an IC50 value for antagonism of the EC80 response and a maximum extent of antagonism by the compound at this concentration of agonist was determined by non-linear curve fitting. In the second mode (utilizing a double add protocol), several fixed concentrations of the present compounds were added to various wells on a plate, followed by a range of concentrations of agonist for each concentration of present compound; the EC50 values for the agonist at each concentration of compound were determined by nonlinear curve fitting. A decrease in the EC50 value of the agonist with increasing concentrations of the present compounds (a leftward shift of the agonist concentration-response curve) is an indication of the degree of mGluR5 positive allosteric modulation at a given concentration of the present compound. An increase in the EC50 value of the agonist with increasing concentrations of the present compounds (a rightward shift of the agonist concentration response curve) is an indication of the degree of mGluR5 antagonism at a given concentration of the present compound. The second mode also indicates whether the present compounds also affect the maximum response to mGluR5 to agonists.

As a reminder, the IC50 is the concentration needed to halve the response being measured. On rat mGluR5 [1], `CN(c1cncnc1)c1cc(NC(=O)c2cccc(F)c2)ccc1F` gave an IC50 of 9.8 nM.
On to `CN(c1cncnc1)c1cc(NC(=O)c2cccc(F)c2)cc(F)c1F`, for which, at rat mGluR5 [1], the IC50 was 28 nM.
On to `N#Cc1cccc(C(=O)Nc2cc(F)cc(Oc3cncnc3)c2)c1` [drawing 665], for which the IC50 turned out to be 61 ± 15 nM at rat mGluR5 [2] and 60 nM against human mGluR5.
`Cc1csc(C(=O)Nc2cccc(Oc3cccnc3)c2)n1`: half-maximal inhibition on rat mGluR5 [1] (IC50) required 465 nM.
`CN(c1cncnc1)c1cccc(NC(=O)c2cccc(F)c2)c1`: on rat mGluR5 [1], the IC50 amounted to 21 ± 4 nM.
In turn, `O=C(Nc1cccc(Oc2cccnc2)c1)c1cccc(C(F)(F)F)c1` displayed an IC50 against rat mGluR5 [1] of 5990 nM.
At rat mGluR5 [1], `CC(C)CN(c1cncnc1)c1cc(NC(=O)c2cccc(Cl)c2)ccc1Cl` returned an IC50 above 10000 nM.
Regarding `CN(c1cncnc1)c1cccc(NC(=O)c2cccc(C(F)(F)F)n2)c1`, the IC50 against rat mGluR5 [1] was found to be 34 ± 7 nM.
At rat mGluR5 [1], `Cc1ncccc1Oc1cccc(NC(=O)c2cccc(Cl)c2)c1` had a concentration for half-maximal inhibition (IC50) of 2230 nM.
The compound `N#Cc1cccc(C(=O)Nc2cccc(Oc3cccnc3)c2)c1` registered an IC50 at rat mGluR5 [1] of 536 nM.
Same read-out and setting: to `N#Cc1cc(NC(=O)c2cc(Cl)ccn2)cc(Oc2cncnc2)c1` belongs 16 nM; to `Cc1cccc(C(=O)Nc2cccc(Oc3cccnc3)c2)c1`, 286 nM; to `CCN(c1cccnc1)c1cc(F)cc(NC(=O)c2cccc(Cl)c2)c1`, 388 nM.
`CN(c1cncnc1)c1cc(NC(=O)c2cccc(O)n2)ccc1F` came in with an IC50 against rat mGluR5 [1] of 2910 nM.
`CN(c1cncnc1)c1cc(NC(=O)c2cccc(Br)c2)ccc1Cl` had a half-maximal inhibitory concentration (IC50) against rat mGluR5 [1] of 36 nM.
For `N#Cc1cccc(C(=O)Nc2cccc(Oc3cncc(F)c3)c2)c1`, on human mGluR5, the IC50 was 249 nM.
On rat mGluR5 [1], `O=C(Nc1cccc(Oc2cccnc2)c1)c1nccs1` displayed an IC50 of 1600 nM.
As to `CN(c1cncnc1)c1cc(NC(=O)c2cccc(C#N)c2)ccc1F`, the IC50 against rat mGluR5 [1] came to 51 nM.
Same read-out and setting: to `O=C(Nc1cccc(Oc2cncc(F)c2)c1)c1cccc(Br)c1` belongs 124 nM.
For `CN(c1cncnc1)c1cc(NC(=O)c2cccc(Br)c2)ccc1F`, the IC50 against rat mGluR5 [1] turned out to be 14 nM.
Same read-out and setting: the same measure for `CN(c1cncnc1)c1cc(NC(=O)c2cscn2)cc(F)c1F`: 80 nM; for `CCN(c1cccnc1)c1cccc(NC(=O)c2cccc(Cl)c2)c1`: 111 ± 21 nM; for `O=C(Nc1cc(F)c(F)c(Oc2cncnc2)c1)c1cc(F)ccn1`: 1690 nM.
`O=C(Nc1cc(F)cc(Oc2cncnc2)c1)c1cccc(F)c1`: half-maximal inhibition at rat mGluR5 [1] (IC50) required 288 nM.
At rat mGluR5 [1], `CN(c1cncnc1)c1cc(F)cc(NC(=O)c2cccc(F)c2)c1` showed an IC50 of 127 nM.
At rat mGluR5 [1], `N#Cc1cccc(C(=O)Nc2cc(Cl)cc(Oc3cncnc3)c2)c1` had an IC50 of 63 ± 9 nM.
On to `CN(c1cncnc1)c1cccc(NC(=O)c2cccc(C#N)c2)c1`, for which, at rat mGluR5 [1], the IC50 stood at 84 ± 14 nM.
In the case of `CCN(c1cccnc1)c1cc(F)cc(NC(=O)c2cccc(Br)c2)c1`, half-maximal inhibition against rat mGluR5 [1] (IC50) was put at 656 nM.
As to `N#Cc1cc(NC(=O)c2cccc(Br)c2)cc(Oc2cncnc2)c1`, on human mGluR5, 94 nM corresponded to half-maximal inhibition (IC50).
In turn, `Cc1cccc(C(=O)Nc2cc(Cl)cc(Oc3ccc(C)nc3)c2)c1` registered an IC50 against rat mGluR5 [1] of 6870 nM.
In turn, `CN(c1cncnc1)c1cc(NC(=O)c2cccc(Cl)c2)ccc1F` registered an IC50 at human mGluR5 of 11 nM.
Take `CN(c1cncnc1)c1cc(NC(=O)c2cccc(C#N)c2)ccc1Cl`: at rat mGluR5 [1], the IC50 amounted to 59 nM.
At rat mGluR5 [1], `O=C(Nc1cccc(Oc2cncnc2)c1)c1cccc(Cl)c1` returned an IC50 of 75 ± 13 nM.
As to `Cc1nc(C(=O)Nc2cccc(Oc3cccnc3)c2)cs1`, at rat mGluR5 [1], half-maximal inhibition (IC50) required 4210 nM.
On to `CN(c1cncnc1)c1cc(Cl)cc(NC(=O)c2cccc(Cl)c2)c1`, for which half-maximal inhibition against rat mGluR5 [1] (IC50) required 138 nM.
On rat mGluR5 [1], `COc1cccc(C(=O)Nc2cccc(Oc3cccnc3)c2)n1` came in with an IC50 of 8340 nM.
`O=C(Nc1cccc(Oc2cccnc2)c1)c1ccc(F)c(Cl)c1`: the IC50 against rat mGluR5 [1] worked out at 6250 nM.
On rat mGluR5 [1], `COc1ccnc(C(=O)Nc2cc(C#N)cc(Oc3cncnc3)c2)c1` registered an IC50 of 63 nM.
`N#Cc1cccc(C(=O)Nc2cccc(Oc3cncc(Cl)c3)c2)c1`: the IC50 at rat mGluR5 [1] is 155 nM.
In the case of `[2H]C([2H])([2H])N(c1cncnc1)c1cc(NC(=O)c2cccc(C#N)c2)ccc1Cl`, the IC50 on rat mGluR5 [1] was 84 nM.
For `O=C(Nc1cccc(Oc2cccnc2)c1)c1cccc(Cl)c1F`, at rat mGluR5 [1], the IC50 was above 10000 nM.
The compound `O=C(Nc1cc(Cl)cc(Oc2cncnc2)c1)c1cccc(Cl)c1` had an IC50 against human mGluR5 of 30 nM.
Turning to `O=C(Nc1cc(F)cc(Oc2cncnc2)c1)c1cccc(F)n1`, the IC50 on rat mGluR5 [1] worked out at 2560 nM.
As to `CCN(c1cccnc1)c1cccc(NC(=O)c2cccc(Br)c2)c1`, on rat mGluR5 [1], the IC50 amounted to 208 nM.
Consider `CCN(c1cncnc1)c1cccc(NC(=O)c2cccc(C#N)c2)c1`, for which the IC50 against rat mGluR5 [1] stood at 43 nM.
In turn, `CCN(c1cccnc1)c1cccc(NC(=O)c2cccc(C#N)c2)c1` yielded an IC50 against rat mGluR5 [1] of 120 nM.
As to `CC(C)Oc1ccnc(C(=O)Nc2cc(F)cc(Oc3cncnc3)c2)c1`, the midpoint of inhibition on rat mGluR5 [1], the IC50, lay at 230 nM.
On rat mGluR5 [1], `COc1cccc(C(=O)Nc2cc(F)cc(Oc3cncnc3)c2)c1` returned an IC50 of 311 nM.
Take `CN(c1cncnc1)c1ccc(F)c(NC(=O)c2cccc(Cl)c2)c1`: inhibition at rat mGluR5 [1] was half-maximal at 80 nM (IC50).
On to `CCCN(c1cccnc1)c1cccc(NC(=O)c2cccc(Cl)c2)c1`, for which the IC50 against rat mGluR5 [1] came out at 5490 nM.
Take `N#Cc1cc(C(=O)Nc2cc(F)cc(Oc3cncnc3)c2)ccc1F`: the IC50 against rat mGluR5 [1] turned out to be 1640 nM.
`N#Cc1cccc(C(=O)Nc2cc(F)cc(Oc3cncnc3)c2)c1` [drawing 550]: 61 ± 15 nM corresponded to half-maximal inhibition against rat mGluR5 [1] (IC50).
`O=C(Nc1cc(F)cc(Oc2cncnc2)c1)c1cccc(OC(F)(F)F)c1` registered an IC50 against rat mGluR5 [1] of 417 nM.
For the compound `CN(c1cncnc1)c1cc(NC(=O)c2cccc(F)c2)ccc1Cl`, the concentration for half-maximal inhibition (IC50) at rat mGluR5 [1] was found to be 16 nM.
The same measure, in the same setting: to `O=C(Nc1cc(F)c(F)c(Oc2cncnc2)c1)c1ccc(F)cn1` belongs 5420 nM; to `COc1cccc(C(=O)Nc2cccc(N(C)c3cncnc3)c2)c1`, 108 ± 32 nM; to `CN(c1cncc(Cl)c1)c1cccc(NC(=O)c2cccc(C#N)c2)c1`, above 10000 nM.
With `O=C(Nc1cc(Cl)cc(Oc2cncc(F)c2)c1)c1cccc(Cl)n1`, half-maximal inhibition against rat mGluR5 [1] (IC50) was put at 5370 nM.
On the same count and under the same terms, the same measure for `CN(c1cccnc1)c1cccc(NC(=O)c2cccc(Br)c2)c1`: 83 nM; for `CN(c1cncnc1)c1cc(NC(=O)c2cccc(C#N)c2)cc(F)c1F`: 148 nM; for `O=C(Nc1cc(Oc2cccnc2)cc(C(F)(F)F)c1)c1cccc(Cl)c1`: above 30000 nM.
Consider `N#Cc1cccc(C(=O)Nc2cccc(Oc3cncnc3)c2)c1`, for which, at rat mGluR5 [1], the IC50 stood at 580 nM.
Same read-out and setting: to `O=C(Nc1cccc(Oc2cncnc2)c1)c1cccc(Br)c1` belongs 53 nM; to `CN(c1cccnc1)c1cccc(NC(=O)c2cccc(Cl)c2)c1`, 31 ± 5 nM; to `CN(c1cncc(Cl)c1)c1cccc(NC(=O)c2cccc(Cl)c2)c1`, above 10000 nM.
On to `O=C(Nc1cccc(Oc2cccnc2)c1)c1cscn1`, for which the IC50 at rat mGluR5 [1] stood at 1270 nM.
At rat mGluR5 [1], `N#Cc1ccc(F)c(C(=O)Nc2cc(F)cc(Oc3cncnc3)c2)c1` returned an IC50 of 87 nM.
As for `CN(c1cncnc1)c1cc(NC(=O)c2cccc(F)n2)ccc1F`, the midpoint of inhibition on rat mGluR5 [1], the IC50, lay at 8.6 nM.
The same measure, in the same setting: to `N#Cc1cc(NC(=O)c2cc(Br)ccn2)cc(Oc2cncnc2)c1` belongs 17 nM.
In the case of `N#Cc1cc(NC(=O)c2cccc(C#N)c2)cc(Oc2cncnc2)c1`, on rat mGluR5 [1], the IC50 came out at 443 nM.
Turning to `O=C(Nc1cccc(Oc2cccnc2)c1)c1cccc(F)n1`, half-maximal inhibition against rat mGluR5 [1] (IC50) required 3530 nM.
Turning to `Cc1ccc(Oc2cc(Cl)cc(NC(=O)c3cccc(Cl)c3)c2)cn1`, the concentration for half-maximal inhibition (IC50) against rat mGluR5 [1] is above 10000 nM.
